# Measured values taken from US20240207402A1, “MEANS AND METHODS FOR ENHANCING RECEPTOR-TARGETED GENE TRANSFER” (Deutsches Krebsforschungszentrum Stiftung des öffentlichen …, priority 2021, published 2024).
# Legend:
# [1] = tested on: splenocytes isolated from huNSG mice; format: cell-based, humanized NSG mice; conditions: CD3-LV(GFP), 50 or 100 nM dasatinib 5 h, three days post transduction
# human CD3 receptor = format: cell-based; conditions: 50 or 100 nM dasat., three days post transduction
# CD25 = format: cell-based, human
# activated PBMC [2] = experiment: Vector titers (transducing units/mL) on activated PBMC; format: cell-based, human
# Description: Transduction was additionally promoted by the transduction enhancer VF-1. Culture medium without dasatinib and Vectofusin-1 was used for control transductions. Transgene expression in T-cells was evaluated 3 and 7 days post transduction by flow cytometry. […] After spinfection, 100 μL of fresh media, either containing the different dasatinib concentrations or without dasatinib, was added and the cells were cultured at 37° C. The medium was changed to fresh TCM with IL-2 or IL-7/15 without dasatinib 3 h, 5 h or 7 h after start of incubation with dasatinib. The cells were further cultured at 37° C., and analyzed for transgene expression 3-4 and 7 days post transduction by flow cytometry. Vector titers were determined in transducing units per milliliter (T U/mL) from LV dilutions showing linear correlation to the number of transgene-positive cells and calculated using following equation.
# Nalm-6 cells = format: cell-based, human
# [3] = tested on: CD45+ cells isolated from blood; experiment: In vivo transduction in PBMC-humanized NSG mice; conditions: 10 mg/kg dasatinib i.p. one hour prior to CD3-LV i.v., seven days, not statistically significant
# Description: For humanization, 1×10^7 ex vivo activated PBMC were transplanted by intravenous (i.v.) tail-vein injection into 8 week old mice. Humanization levels were measured and used for grouping of the mice by flow cytometry from blood taken eleven days post PBMC injection. The following day, 10 mg/kg dasatinib diluted in vehicle (4% DMSO, 33.3% PEG-300, 5% Tween80, 57.7% ddH20) was intraperitoneally (i.p.) administered to the mice, one hour prior to CD3-LV i.v. injection. The animals were sacrificed seven days post vector administration. Blood, spleen and bone marrow were collected and single cell 35 suspensions were prepared and analyzed by flow cytometry. Additionally, genomic DNA was isolated from the single cell suspension and used for vector copy number (VCN) analysis using quantitative polymerase chain reaction (qPCR).
# [4] = tested on: freshly isolated PBMC exposed solely to IL-7/15; conditions: 100 nM dasatinib, day 4 and 7
# human whole blood = format: cell-based; conditions: 100 nM dasatinib, five to six days
# [5] = tested on: freshly isolated PBMC exposed solely to IL-7/15; format: cell-based, human
# activated PBMC [6] = experiment: Comparison of tyrosine kinase inhibitors on targeted LV transduction of activated PBMC; format: cell-based, human; conditions: 5 h; for effect of TKI on transduction by targeted LVs: 50 nM dasatinib, 1 μM imatinib or 30 μM genistein
# activated PBMC [7] = experiment: Transduction of fully activated PBMC with targeted LVs in presence of dasatinib (GFP expression, flow cytometry); format: cell-based, human
# activated PBMC [8] = experiment: Binding of CD3-targeted LVs to activated PBMC (anti-His staining); format: cell-based, human; conditions: 100 nM dasatinib, 7 h and 24 h after start of treatment
# Description: To understand the mechanism behind the transduction enhancing characteristic of dasatinib, fully activated PBMC were incubated with CD3-targeted LVs, as described above, and analyzed via flow cytometry 7, 24 and 72 h after start of incubation with dasatinib and transduction. Cells were stained with anti-His-PE, allowing the detection of L. Vs bound to the cells.
# activated PBMC [9] = tested on: activated PBMC
# CD19+Nalm-6 cells = format: cell-based, human; conditions: effector:target 0.5:1
# activated PBMC [10] = format: cell-based, human
smiles,measurement,setting,value
"Cc1nc(Nc2ncc(C(=O)Nc3c(C)cccc3Cl)s2)cc(N2CCN(CCO)CC2)n1 [dasatinib, N-(2-Chloro-6-methylphenyl)-2-[[6-[4-(2-hydroxyethyl)-1-piperazinyl]-2-methyl-4-pyrimidinyl]amino]-5 thiazolecarboxamide]",GFP expression of CD45+ splenocytes in presence of dasatinib,[1],around 25%
same,MFI of the CD3 receptor in presence of CD3-LV and dasatinib,human CD3 receptor,only slightly reduced
same,CD25-expression upon activating antibodies or CD3-LVs in presence of dasatinib,CD25,did not cause an increase
same,increase of titers of CD3-LV(CAR) in presence of dasatinib,"activated PBMC [2]; CD19 CAR, three days post transduction",3-16 fold
same,titers of CD3-LV(GFP) in presence of dasatinib,activated PBMC [2]; with dasatinib,1e7-1e8 T.U./mL
same,overall CAR expression compared to untreated cells,Nalm-6 cells; 50 nM dasatinib during transduction with CD3-LV(CAR),increased
same,target cell killing by CAR T cells generated in presence of dasatinib,"Nalm-6 cells; 50 nM dasatinib, day 2 up to day 8, 1:1 ratio",complete target cell killing
same,CAR T cell exhaustion and phenotype markers dependent on dasatinib treatment,Nalm-6 cells; day 8 of the killing assay,no difference
same,GFP-expression and vector integration in genomic DNA of blood cells in vivo,[3],clear tendency
same,cell viability of non-activated cells,[4],did not negatively affecT-cell viability
same,"GFP-expression of CD3+ cells, CD3-LV in presence of dasatinib",human whole blood,above 2%
same,"TR66-LV mediated gene transfer, VF-1 added to dasatinib-treated cells","[5]; IL-7/15 only PBMC, 100 nM dasatinib plus VF-1",10%
same,improvement of CD3-LV transduction of cytokine-only stimulated T-cells,[5]; in presence of dasatinib (summary),7 fold
same,"increase of transgene expression, transduction with CD3-LV","activated PBMC [6]; 50 nM dasatinib or 1 μM bosutinib, GFP three days post transduction",~4 fold
same,effect of TKI on transduction by targeted LVs,activated PBMC [6],strongest increase
same,"GFP-expression, TR66-LV in presence of dasatinib",activated PBMC [7],30%
same,T-cells transduced by CD3-LVs in presence of dasatinib,activated PBMC [7],up to 70%
same,effect of pretreatment on cell-directed gene transfer using CD3-LVs,activated PBMC [7],dramatically increases
same,effect on CD4-LV transduction,activated PBMC [7],slight increase
same,effect on transduction by CD8-LV and VSV-LV,activated PBMC [7],not affected
same,increase in transduction (maximum in this setup),activated PBMC [7],3 fold
same,increase in transduction compared to untreated cells,activated PBMC [7],1.6 fold
same,increase in transduction compared with Vectofusin-1,activated PBMC [7],even stronger than by the transduction enhancer Vectofusin-1
same,less transduction after short incubation compared to longer incubation time,activated PBMC [7],10-35%
same,stability of gene transfer,activated PBMC [7],remained stable
same,transduction enhancement at lowest concentration,activated PBMC [7],not sufficient to enhance transduction
same,"transduction for TR66-LV, VF-1 added in presence of dasatinib",activated PBMC [7],~70%
same,amount of CD3-LVs bound to the cells,activated PBMC [8],substantially increased
same,viability in presence of dasatinib compared to untreated cells,"activated PBMC [9]; activated PBMC, 100 nM dasatinib, day 3 and 7",not compromised
same,viability of the cells at high dasatinib concentration,"activated PBMC [9]; dasatinib concentrations above 50 nM, 3 days post transduction",dropped slightly
same,tumor killing (dead target cells) by CAR T cells generated in presence of dasatinib,CD19+Nalm-6 cells; 4 h,around 40%
same,Nalm-6 cells killed by CD19-CAR T cells,CD19+Nalm-6 cells; 24 h,nearly all
same,CAR transduction in presence of VF-1 with dasatinib,activated PBMC [10],13%
same,"CAR-expression, CD3-LV transduced cells, dasatinib present",activated PBMC [10],up to 10%
O=c1c(-c2ccc(O)cc2)coc2cc(O)cc(O)c12 [genistein],effect of TKI on transduction by targeted LVs,activated PBMC [6],slight increase
"Cc1ccc(NC(=O)c2ccc(CN3CCN(C)CC3)cc2)cc1Nc1nccc(-c2cccnc2)n1 [imatinib, 4-[(4-Methylpiperazin-1-yl)methyl]-N-{4-methyl-3-[(4-pyridin-3˜ ylpyrimidin-2-yl)amino]phenyl}benzamid]",effect of TKI on transduction by targeted LVs,activated PBMC [6],did not lead to an increase
